Data taken from ChEMBL document CHEMBL3046121, “Design and synthesis of new N-substituted amino methyl-[1,2,3] triazolyl moieties of fluoroquinolones as antibacterial agents” (2013).
Converted amounts (≈) assume the structure as drawn.

Assays:
Assay type in all cases: functional
Staphylococcus aureus [1] = assay: Antibacterial activity against methicillin-sensitive Staphylococcus aureus ATCC 29213 assessed as growth inhibition after 24 hr by two-fold serial dilution method; details: ATCC 29213, 24 h
Enterococcus faecalis = assay: Antibacterial activity against Vancomycin-resistant Enterococcus faecalis ATCC 700802 assessed as growth inhibition after 24 hr by two-fold serial dilution method; details: ATCC 700802, 24 h
Acinetobacter baumannii = assay: Antibacterial activity against Acinetobacter baumannii BAA 747 assessed as growth inhibition after 24 hr by two-fold serial dilution method; details: BAA 747, 24 h
Klebsiella pneumoniae = assay: Antibacterial activity against clinical Klebsiella pneumoniae AB 356 assessed as growth inhibition after 24 hr by two-fold serial dilution method; details: AB 356, 24 h
Staphylococcus aureus [2] = assay: Antibacterial activity against Methicillin-resistant Staphylococcus aureus ATCC 33591 assessed as growth inhibition after 24 hr by two-fold serial dilution method; details: ATCC 33591, 24 h
Moraxella catarrhalis = assay: Antibacterial activity against Moraxella catarrhalis ATCC 25238 assessed as growth inhibition after 24 hr by two-fold serial dilution method; details: ATCC 25238, 24 h

| Structure (SMILES) | MIC (Staphylococcus aureus [1]) [µg/mL] | MIC (Enterococcus faecalis) [µg/mL] | MIC (Acinetobacter baumannii) [µg/mL] | MIC (Klebsiella pneumoniae) [µg/mL] | MIC (Staphylococcus aureus [2]) [µg/mL] | MIC (Moraxella catarrhalis) [µg/mL] |
| --- | --- | --- | --- | --- | --- | --- |
| O=C(O)c1cn(C2CC2)c2cc(-n3cc(CNCc4ccccc4)nn3)c(F)cc2c1=O | 2 (≈ 4.61 µM) | 4 (≈ 9.23 µM) | 8 (≈ 18.5 µM) | 1 (≈ 2.31 µM) | 2 (≈ 4.61 µM) | 1 (≈ 2.31 µM) |
| O=C(O)c1cn(C2CC2)c2cc(-n3cc(CNc4ccc(Cl)cc4)nn3)c(F)cc2c1=O | 0.25 (≈ 0.551 µM) | 1 (≈ 2.2 µM) | 0.5 (≈ 1.1 µM) | 1 (≈ 2.2 µM) | 0.25 (≈ 0.551 µM) | 0.125 (≈ 0.275 µM) |
| O=C(O)c1cn(C2CC2)c2cc(N3CCNCC3)c(F)cc2c1=O [CIPROFLOXACIN] | 0.5 (≈ 1.51 µM) | 0.5 (≈ 1.51 µM) | 0.5 (≈ 1.51 µM) |  | 0.5 (≈ 1.51 µM) | 0.25 (≈ 0.754 µM) |
| O=C(O)c1cn(C2CC2)c2cc(-n3cc(CNC4CCCCC4)nn3)c(F)cc2c1=O | 16 (≈ 37.6 µM) | 32 (≈ 75.2 µM) | 8 (≈ 18.8 µM) | 2 (≈ 4.7 µM) | 32 (≈ 75.2 µM) | 1 (≈ 2.35 µM) |
| O=C(O)c1cn(C2CC2)c2cc(-n3cc(CNC4CCCCCC4)nn3)c(F)cc2c1=O | 32 (≈ 72.8 µM) | 32 (≈ 72.8 µM) | 16 (≈ 36.4 µM) | 16 (≈ 36.4 µM) | 32 (≈ 72.8 µM) | 8 (≈ 18.2 µM) |
| O=C(O)c1cn(C2CC2)c2cc(-n3cc(CNc4ccccc4)nn3)c(F)cc2c1=O | 0.25 (≈ 0.596 µM) | 2 (≈ 4.77 µM) | 1 (≈ 2.38 µM) | 1 (≈ 2.38 µM) | 0.5 (≈ 1.19 µM) | 0.125 (≈ 0.298 µM) |
| O=C(O)c1cn(C2CC2)c2cc(-n3cc(CN4CCOCC4)nn3)c(F)cc2c1=O | 8 (≈ 19.4 µM) | 16 (≈ 38.7 µM) | 16 (≈ 38.7 µM) | 16 (≈ 38.7 µM) | 16 (≈ 38.7 µM) | 4 (≈ 9.68 µM) |
| Cc1ccc(NCc2cn(-c3cc4c(cc3F)c(=O)c(C(=O)O)cn4C3CC3)nn2)cc1 | 0.5 (≈ 1.15 µM) | 2 (≈ 4.61 µM) | 8 (≈ 18.5 µM) | 4 (≈ 9.23 µM) | 0.5 (≈ 1.15 µM) | 0.125 (≈ 0.288 µM) |
| O=C(O)c1cn(C2CC2)c2cc(-n3cc(CN4CCNCC4)nn3)c(F)cc2c1=O | 16 (≈ 38.8 µM) | 32 (≈ 77.6 µM) | 32 (≈ 77.6 µM) | 8 (≈ 19.4 µM) | 16 (≈ 38.8 µM) | 8 (≈ 19.4 µM) |
| O=C(O)c1cn(C2CC2)c2cc(-n3cc(CNC4CC4)nn3)c(F)cc2c1=O | 16 (≈ 41.7 µM) | 16 (≈ 41.7 µM) | 32 (≈ 83.5 µM) | 32 (≈ 83.5 µM) | 16 (≈ 41.7 µM) | 32 (≈ 83.5 µM) |
| O=C(O)c1cn(C2CC2)c2cc(-n3cc(CNC4CCCC4)nn3)c(F)cc2c1=O | 16 (≈ 38.9 µM) | 16 (≈ 38.9 µM) | 16 (≈ 38.9 µM) | 4 (≈ 9.72 µM) | 16 (≈ 38.9 µM) | 1 (≈ 2.43 µM) |
| O=C(O)c1cn(C2CC2)c2cc(-n3cc(Cn4ccnc4)nn3)c(F)cc2c1=O | 32 (≈ 81.1 µM) | 32 (≈ 81.1 µM) | 32 (≈ 81.1 µM) | 32 (≈ 81.1 µM) | 32 (≈ 81.1 µM) | 8 (≈ 20.3 µM) |
| CCN(CC)Cc1cn(-c2cc3c(cc2F)c(=O)c(C(=O)O)cn3C2CC2)nn1 | 8 (≈ 20 µM) | 32 (≈ 80.1 µM) | 16 (≈ 40.1 µM) | 16 (≈ 40.1 µM) | 32 (≈ 80.1 µM) | 16 (≈ 40.1 µM) |
| CN(C)Cc1cn(-c2cc3c(cc2F)c(=O)c(C(=O)O)cn3C2CC2)nn1 | 4 (≈ 10.8 µM) | 16 (≈ 43.1 µM) | 8 (≈ 21.5 µM) | 2 (≈ 5.39 µM) | 8 (≈ 21.5 µM) | 1 (≈ 2.69 µM) |
| COc1ccc(NCc2cn(-c3cc4c(cc3F)c(=O)c(C(=O)O)cn4C3CC3)nn2)cc1 | 0.5 (≈ 1.11 µM) | 2 (≈ 4.45 µM) | 8 (≈ 17.8 µM) | 4 (≈ 8.9 µM) | 0.5 (≈ 1.11 µM) | 0.5 (≈ 1.11 µM) |
| CC(C)NCc1cn(-c2cc3c(cc2F)c(=O)c(C(=O)O)cn3C2CC2)nn1 | 16 (≈ 41.5 µM) | 16 (≈ 41.5 µM) | 16 (≈ 41.5 µM) | 4 (≈ 10.4 µM) | 16 (≈ 41.5 µM) | 1 (≈ 2.59 µM) |
| O=C(O)c1cn(C2CC2)c2cc(-n3cc(CN4CCCCC4)nn3)c(F)cc2c1=O | 4 (≈ 9.72 µM) | 16 (≈ 38.9 µM) | 8 (≈ 19.4 µM) | 2 (≈ 4.86 µM) | 16 (≈ 38.9 µM) | 1 (≈ 2.43 µM) |
| CCCN(CCC)Cc1cn(-c2cc3c(cc2F)c(=O)c(C(=O)O)cn3C2CC2)nn1 | 8 (≈ 18.7 µM) | 32 (≈ 74.9 µM) | 16 (≈ 37.4 µM) | 8 (≈ 18.7 µM) | 32 (≈ 74.9 µM) | 2 (≈ 4.68 µM) |
| CC(=O)NC[C@H]1CN(c2ccc(N3CCOCC3)c(F)c2)C(=O)O1 [LINEZOLID] |  |  | > 32 | > 32 |  | 4 (≈ 11.9 µM) |
| O=C(O)c1cn(C2CC2)c2cc(-n3cc(CN4CCCC4)nn3)c(F)cc2c1=O | 2 (≈ 5.03 µM) | 16 (≈ 40.3 µM) | 8 (≈ 20.1 µM) | 2 (≈ 5.03 µM) | 8 (≈ 20.1 µM) | 1 (≈ 2.52 µM) |
| O=C(O)c1cn(C2CC2)c2cc(-n3cc(CNc4ccc(F)cc4)nn3)c(F)cc2c1=O | 0.25 (≈ 0.572 µM) | 4 (≈ 9.14 µM) | 2 (≈ 4.57 µM) | 2 (≈ 4.57 µM) | 1 (≈ 2.29 µM) | 0.25 (≈ 0.572 µM) |
| O=C(O)c1cn(C2CC2)c2cc(-n3cc(CNCc4ccc(F)cc4)nn3)c(F)cc2c1=O | 2 (≈ 4.43 µM) | 4 (≈ 8.86 µM) | 8 (≈ 17.7 µM) | 2 (≈ 4.43 µM) | 2 (≈ 4.43 µM) | 1 (≈ 2.22 µM) |
